Test results taken from PubChem BioAssay (NCI).
Values joined by “and” are separate entries in the source; they are usually repeats but may differ in a detail not shown here. Equal entries are not always repeated.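 Dose response: 5 concentrations. Exposure: 48 h. Format: 96-well plates. Endpoint: linear interpolation; highest concentration if not reached. GI50: concentration for 50% inhibition of growth. TGI denotes the concentration required for complete inhibition of growth.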

Legend:
Assay in all cases: DTP human tumour cell line panel, 48 h
786-0 renal = tested on: 786-0 renal
BT-549 breast = tested on: BT-549 breast
HS 578T breast = tested on: HS 578T breast
KM12 colon = tested on: KM12 colon
MOLT-4 leukemia = tested on: MOLT-4 leukemia
NCI-H226 lung = tested on: NCI-H226 lung
NCI-H522 lung = tested on: NCI-H522 lung
PC-3 prostate = tested on: PC-3 prostate
SNB-75 CNS = tested on: SNB-75 CNS
U251 CNS = tested on: U251 CNS

SMILES | GI50 (786-0 renal) | TGI (786-0 renal) | GI50 (BT-549 breast) | TGI (BT-549 breast) | GI50 (HS 578T breast) | TGI (HS 578T breast) | GI50 (KM12 colon) | TGI (KM12 colon) | GI50 (MOLT-4 leukemia) | TGI (MOLT-4 leukemia) | GI50 (NCI-H226 lung) | TGI (NCI-H226 lung) | GI50 (NCI-H522 lung) | TGI (NCI-H522 lung) | GI50 (PC-3 prostate) | TGI (PC-3 prostate) | GI50 (SNB-75 CNS) | TGI (SNB-75 CNS) | GI50 (U251 CNS) | TGI (U251 CNS)
COc1cc(/C=C/C(=O)N2CCN(C(=O)c3cc(OC)c(OC)c(OC)c3)CC2)ccc1OCCCOc1cc2c(cc1OC)C(=O)N1CCC[C@H]1C=N2 | 0.491 µM | 10.6 µM | 0.154 µM | 0.434 µM | 0.31 µM | 0.841 µM | 0.25 µM | 0.699 µM | 0.218 µM | 1.59 µM | 0.286 µM | 1.19 µM | 0.213 µM | 3.25 µM | 0.506 µM | > 34.3 µM | 0.241 µM | 0.642 µM | 0.227 µM | 6.06 µM
O=C(O)c1ccc(C(=O)O)c(C(=O)Nc2ccc3c(c2)C(=O)c2ccccc2-3)c1 |  | > 100 µM |  | > 100 µM |  | > 100 µM |  | > 100 µM |  | > 100 µM |  | > 100 µM |  | > 100 µM |  | > 100 µM |  | > 100 µM |  | > 100 µM
O=C(Nc1ccc(/C=C/c2ccc(NC(=O)c3cc(S(=O)(=O)O)c4cccnc4c3O)cc2S(=O)(=O)O)c(S(=O)(=O)O)c1)c1cc(S(=O)(=O)O)c2cccnc2c1O | 4.86 µM | > 54.5 µM | 21.8 µM | > 79.8 µM | > 53.1 µM | > 74.8 µM | 42.8 µM | > 67.7 µM | 1.69 µM | > 28.7 µM | 6.29 µM | 47.5 µM | 15.3 µM | 47 µM | 32.2 µM | > 78.3 µM | 8.18 µM | 48.7 µM | 3.32 µM | > 22.4 µM
O=C1c2cccc(NCCN=Cc3ccccc3O)c2C(=O)c2c(NCCN=Cc3ccccc3O)cccc21 | 0.865 µM | 3.76 µM | 2.77 µM | 9.37 µM | 0.838 µM | 3.98 µM | 0.353 µM | 1.44 µM | 0.353 µM | 1.56 µM | 0.571 µM | 6 µM | 0.278 µM | 1.38 µM | 1.03 µM | 5.87 µM | 0.163 µM | 2.65 µM | 0.521 µM | 4.62 µM
O=C(Nc1n[nH]c2nnc(-c3cccnc3)cc12)C1CC1 | 3.65 µM | > 25 µM | 10.8 µM | > 25 µM | 0.0833 µM | > 9.38 µM | 5.22 µM | > 20.1 µM | 4.88 µM | > 25 µM | 2.7 µM | > 13.9 µM | > 5.13 µM | > 25 µM | 6.44 µM | > 25 µM | 0.141 µM | > 25 µM | 1.06 µM | > 25 µM
CC(C)(C)CC(N)=O |  | > 100 µM |  | > 100 µM |  | > 100 µM |  | > 100 µM |  |  |  | > 100 µM |  | > 100 µM |  | > 100 µM |  | > 100 µM |  | > 100 µM
Cn1cc(C2=C(c3cn(C)c4ccccc34)C(=O)NC2=O)c2ccccc21 | 1.52 µM | > 25 µM | 2.33 µM | > 25 µM | 0.7 µM | > 19.9 µM | 0.948 µM | > 25 µM | 4.81 µM | > 25 µM | 9.19 µM | > 25 µM | 0.433 µM | 2.52 µM | 1.12 µM | > 25 µM | 0.306 µM | 1.64 µM | 1.26 µM | > 25 µM
O=c1ssc(Cl)c1Cl |  | > 7.05 µM |  | > 10 µM |  | > 10 µM |  | > 10 µM |  | 4.9 µM |  | > 10 µM |  | > 6.78 µM |  | > 10 µM |  | > 10 µM |  | > 10 µM
CN1C/C=C/CCOc2cccc(c2)-c2ccnc(n2)Nc2cccc(c2)C1 | 0.0317 µM | 0.203 µM | 0.0398 µM | 0.21 µM | 0.0367 µM | 0.438 µM | 0.0333 µM | 0.176 µM | 0.0396 µM | 0.959 µM | 0.0347 µM | 0.442 µM | 0.0522 µM | 0.233 µM | 0.0519 µM | 1.39 µM | 0.039 µM | 0.184 µM | 0.0421 µM | 1.07 µM
COc1cc2c(cc1OC)C1Cc3cc(OC)c(OC)cc3C(C2)N1C |  | > 100 µM |  | > 75 µM |  | > 75 µM |  | > 100 µM |  | > 100 µM |  | > 75 µM |  | > 100 µM |  | > 75 µM |  | > 100 µM |  | > 100 µM
COc1ccc(Nc2cc(C)nc(NCCCNc3ccnc4cc(Cl)ccc34)n2)cc1 | 1.67 µM | 3.26 µM | 1.86 µM | 4.67 µM | 1.8 µM | 4.39 µM | 1.88 µM | 3.58 µM | 2.95 µM | > 100 µM | 2.08 µM | 5.17 µM | 2.04 µM | 3.65 µM | 2.35 µM | 9.9 µM | 1.28 µM | 2.54 µM | 1.39 µM | 2.8 µM
CCOc1cccc(-c2nc(N)nc(Nc3ccccc3SSc3ccccc3Nc3nc(N)nc(-c4cccc(OCC)c4)n3)n2)c1 | 5.03 µM | 69.7 µM | 4.97 µM | > 100 µM | 6.37 µM | > 100 µM | 3.53 µM | > 100 µM | 2.61 µM | > 100 µM | 4.5 µM | > 100 µM | 7.77 µM | 48.9 µM | 0.671 µM | 15.3 µM | > 100 µM | > 100 µM |  | 
CC(=O)c1cc(C(=O)c2ccc3c(c2)Sc2ccccc2N3)c2cc(C)ccn12 | 0.0965 µM | > 100 µM | 0.251 µM | > 100 µM | 0.084 µM | > 100 µM | 0.0425 µM | > 100 µM | 0.329 µM | > 100 µM | 3.91 µM | > 100 µM | 0.0412 µM | > 100 µM | 0.0506 µM | > 100 µM | 0.0416 µM | > 100 µM | 0.138 µM | > 100 µM
CC(=O)N1N=C2/C(=C/c3ccc(Cl)cc3)CC(C)CC2C1c1ccc(Cl)cc1 (stereo unspecified) | 18.2 µM | 39.1 µM | 17 µM | 34.2 µM | 20.6 µM | 72.1 µM | 21.4 µM | 67.1 µM | 11.6 µM | 39.3 µM | 22 µM | 70.2 µM | 17.1 µM | 56.8 µM | 12.8 µM | > 100 µM | 18.4 µM | 65.3 µM | 25.1 µM | 86.8 µM
CC1OC(OC2C(OC3CCC4(C)C(CCC5(C)C4CC=C4C6CC(C)(C)CCC6(C(=O)O)CCC45C)C3(C)CO)OCC(O)C2O)C(O)C(O)C1O (stereo unspecified) |  | > 100 µM |  | 35 µM |  | 31.8 µM |  | 21.7 µM |  | 45.8 µM |  | 49.6 µM |  | 28.8 µM |  | 29.1 µM |  | 30.7 µM |  | 50.3 µM
CS(=O)(=O)CC(=O)c1ccccc1 |  | > 100 µM |  | > 100 µM |  | > 100 µM |  | > 100 µM |  | > 100 µM |  | > 100 µM |  | > 100 µM |  | > 100 µM |  | > 100 µM |  | > 100 µM
Clc1ccc(OCc2nnc3n2N=C(c2ccc(Cl)cc2Cl)CS3)cc1 | 32.7 µM | > 100 µM | 22.8 µM | 46.2 µM | 29.1 µM | 71 µM | 20.9 µM | 54.4 µM | 32.4 µM | > 100 µM | 17.3 µM | 38.9 µM | 19.2 µM | 38.7 µM | 27.6 µM | > 100 µM | 16.3 µM | 43.2 µM | 19.5 µM | 41.8 µM
CCCCCCCCCCCCOC1C(CNC(=O)C2OC3OC(C)(C)OC3C2NC(=O)Nc2ccc(CC(=O)NC(Cc3ccccc3)C(=O)O)cc2)OC2OC(C)(C)OC21 (stereo unspecified) | > 25 µM | > 25 µM | 22.7 µM | > 25 µM | 9.2 µM | > 25 µM | > 25 µM | > 25 µM | > 25 µM | > 25 µM | > 25 µM | > 25 µM | > 25 µM | > 25 µM | > 25 µM | > 25 µM | > 25 µM | > 25 µM | > 25 µM | > 25 µM
Cn1c(NCC(O)CN2CCCC2)cc(=O)n(C)c1=O (stereo unspecified) | > 100 µM | > 100 µM | > 100 µM | > 100 µM | > 100 µM | > 100 µM | > 100 µM | > 100 µM | > 100 µM | > 100 µM | > 100 µM | > 100 µM | > 100 µM | > 100 µM | > 100 µM | > 100 µM | 76.2 µM | > 100 µM | > 100 µM | > 100 µM
CCCCCCCCC(=O)OCC(CS[As](C)C)OC(=O)CCCCCCCC (stereo unspecified) | 1.16 µM | > 40.1 µM | 4.78 µM | 19.1 µM | 1.39 µM |  | 2.77 µM | 13.8 µM | 0.326 µM | 2.21 µM | 5.81 µM | 25.5 µM | 1.11 µM |  | 2.6 µM | 21.8 µM | 5.44 µM | 23.5 µM | 2.45 µM | 13 µM
Cc1c(O)c2c(c(O)c1Br)C(=O)C=CC2=O | 1.46 µM | 0.428 µM and 3.02 µM |  | 1.3 µM |  | 6.34 µM | 3.55 µM | 3.14 µM and 13.3 µM |  | 0.101 µM | 5.44 µM | 5.77 µM and 18.7 µM | 0.179 µM | 0.337 µM and 0.365 µM | 1.9 µM | 3.19 µM and 5.15 µM | 2.1 µM | 2.85 µM and 5.07 µM |  | 3.09 µM and 3.99 µM
